The values that follow come from publication PMC9609767, “Radiosynthesis and Preclinical Evaluation of an ^18F-Labeled Triazolopyridopyrazine-Based Inhibitor for Neuroimaging of the Phosphodiesterase 2A (PDE2A)” (Pharmaceuticals, 2022).

“And” between values parts separate entries of the source, which are not always exact repeats. Equal values may be shown once. Read-outs that look alike come from different tables or passages of the source.

Assay [1] addresses T1, rat PDE2A (Rattus norvegicus, UniProt Q01062).
T1 construct: Frozen sagittal 12 µm brain sections obtained from female SPRD and male Wistar-Han rats; from tissue; host or cells: rat brain cryosections (female SPRD and male Wistar-Han rats)
T1 sequence (Q01062 1-928): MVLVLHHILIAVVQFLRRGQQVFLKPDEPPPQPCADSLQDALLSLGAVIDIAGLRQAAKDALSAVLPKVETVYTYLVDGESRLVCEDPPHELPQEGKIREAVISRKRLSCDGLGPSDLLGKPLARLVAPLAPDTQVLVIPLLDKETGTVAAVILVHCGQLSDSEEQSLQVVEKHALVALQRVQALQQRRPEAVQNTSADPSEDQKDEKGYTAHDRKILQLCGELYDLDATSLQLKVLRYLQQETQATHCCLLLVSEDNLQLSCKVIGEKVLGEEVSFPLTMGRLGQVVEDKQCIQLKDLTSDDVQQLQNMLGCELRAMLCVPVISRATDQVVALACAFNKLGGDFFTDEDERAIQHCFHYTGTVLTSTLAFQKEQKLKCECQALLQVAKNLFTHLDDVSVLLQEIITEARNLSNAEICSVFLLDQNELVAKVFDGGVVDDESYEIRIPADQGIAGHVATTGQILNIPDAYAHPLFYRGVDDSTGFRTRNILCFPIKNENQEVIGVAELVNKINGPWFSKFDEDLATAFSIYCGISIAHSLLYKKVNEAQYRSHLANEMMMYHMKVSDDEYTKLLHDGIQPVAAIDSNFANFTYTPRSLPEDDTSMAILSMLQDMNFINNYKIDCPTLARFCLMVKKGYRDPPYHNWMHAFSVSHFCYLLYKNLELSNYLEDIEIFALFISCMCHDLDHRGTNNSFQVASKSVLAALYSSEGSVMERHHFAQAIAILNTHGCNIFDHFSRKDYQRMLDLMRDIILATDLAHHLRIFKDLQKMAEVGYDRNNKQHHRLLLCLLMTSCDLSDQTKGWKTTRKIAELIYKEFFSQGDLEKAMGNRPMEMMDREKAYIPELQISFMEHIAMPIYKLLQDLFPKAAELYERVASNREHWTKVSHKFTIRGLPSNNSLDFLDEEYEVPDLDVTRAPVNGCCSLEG
Put plainly: In vitro autoradiography with rat brain cryosections. In kind it is binding. To be noted: co-incubation with 1 µM inhibitor. How it is done: Frozen sagittal 12 µm brain sections obtained from female SPRD and male Wistar-Han rats (10–12 weeks old) were thawed, dried in a stream of cold air, and pre-incubated for 15 min with incubation buffer (50 mM TRIS-HCl, pH 7.4; supplemented with 1 mM MgCl2, 1 mM CaCl2, 2 mM KCl, and 2 U/mL Adenosine deaminase) at ambient temperature. Afterwards, the buffer was decanted and the cryosections dried again in a stream of cold air before covering with the radioligand in incubation buffer (~0.1 MBq [^18F]11/mL; Am at the time of the incubation ~10 GBq/µmol) for incubation at ambient temperature for 90 min.
The incubation was terminated by pouring off the incubation solution and washing the slides twice with ice-cold buffer (50 mM TRIS-HCl, pH 7.4/4 °C) for 2 min and rinsing by dipping in ice-cold demineralised water. Immediately afterwards, the sections were dried in a stream of cold air and exposed along with appropriate radioactive standards (1 µL of serial dilutions of the radioligand in incubation buffer, pipetted on a microscopic glass slide and air dried) to an ^18F-sensitive image plate for 120 min. Finally, the imaging plate was scanned at the highest possible resolution (pixel size 12.6 µm × 12.6 µm) in a phosphor imager (HD-CR 35; Duerr NDT GmbH, Bietigheim Bissingen, Germany) and the digital image analysed with an image analysis program (Aida Image Analyzer v. 4.26; Elysia-raytest GmbH, Straubenhardt, Germany).
For the determination of the protein concentration, four dried 12 µm cryosections were scraped from the microscopic glass slides, transferred in an Eppendorf tube and solubilised with 200 µL of demineralised water. The protein concentration of this solution was determined by a commercial assay (Pierce™ BCA Protein Assay Kit, Thermo Fisher Scientific, Schwerte, Germany). The area of the cryosections was determined during the analysis of the digitized autoradiographic images, and the volume was calculated by multiplying the area with the thickness of the slices. Finally, the protein concentration of the tissue was calculated (37 mg protein/g wet weight).

Assay [2] deals with human PDE2A. Set-up: method as in PMID 15555642. The settings on record: cited from earlier work.
For assay [3], the system named is bovine PDE2A. Set-up: method as in PMID 15555642. The settings on record: cited from earlier work.
In assay [4] the test system is PDE10A. Kind of assay: Inhibitory potency against PDE10A. Format: biochemical. To be noted: PDE2A vs. PDE10A.
Assay [5] has as its system PDE2A. Set-up: method as in earlier work. To be noted: cited from earlier work.
The subject of assay [6] is PDE10A. Set-up: method as in earlier work. To be noted: read-out: IC50, PDE10A (PDE10A1); cited from earlier work.
In assay [7] the test system is PDE2A. To be noted: cited from earlier work.

What is called IC50 is the concentration needed to halve the response being measured. For the compound `COc1ccc(Cc2nn3c([C@@H](CCCc4ccccc4)[C@@H](C)O)nc(C)c3c(=O)[nH]2)cc1OC` [BAY60-7550], in assay [1], the “blocking of [18F]11 binding in rat brain sections” value is given as “completely blocked”. The results for the IC50 in assay [2] and in assay [3] were 4.7 nM and 2 nM, respectively.
For the compound `CCCC(O)c1ccc(F)c(-c2nnc3c(C)nc4ccc(C5CC5)nc4n23)c1` (centres unmarked) [Compound 11, 1-[3-(2-Cyclopropyl-6-methylpyrido[3,2-e][1,2,4]triazolo[4,3-a]pyrazin-9-yl)-4-fluorophenyl]butan-1-ol], the “selectivity vs. PDE10A” value in assay [4] is roughly 1000 fold. Also, the IC50 in assay [5] is 1.99 nM; in assay [6], ~2000 nM and 1910 nM.
In the case of `Cc1nc(-c2cnn(C)c2-c2ccc(C(F)(F)F)cn2)c2c(N3CCC3)ncnn12` [PF-05180999, reference compound], in assay [1], the “blocking of [18F]11 binding in rat brain sections” value is “completely blocked”. Besides, the IC50 in assay [7] is 1.6 nM.
